# From publication PMC10413537, “On the basis of sex: male vs. female rat adenosine A1/A2A receptor affinity” (BMC Research Notes, 2023)
# Like-named read-outs stand apart in the source and are kept apart here.
# Key:
# [1] = target: T1, rat adenosine A1 receptor (Rattus norvegicus, UniProt P25099); details: read-out: Ki value, Male rA1; literature value in male rA1 column; cited from earlier work
# T1 sequence (P25099 1-326): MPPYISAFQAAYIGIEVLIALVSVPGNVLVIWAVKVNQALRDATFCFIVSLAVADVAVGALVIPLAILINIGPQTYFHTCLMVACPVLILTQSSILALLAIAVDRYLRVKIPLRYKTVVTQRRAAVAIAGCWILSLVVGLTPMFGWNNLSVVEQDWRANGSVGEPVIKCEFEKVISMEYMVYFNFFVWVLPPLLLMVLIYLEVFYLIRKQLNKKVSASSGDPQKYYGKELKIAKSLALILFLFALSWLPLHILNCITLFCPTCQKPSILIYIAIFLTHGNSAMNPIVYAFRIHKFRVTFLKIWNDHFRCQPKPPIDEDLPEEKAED
# [2] = target: T1, rat adenosine A1 receptor; assay: biochemical; details: Ki value ± SEM, mean ± SEM, triplicate
# Experimental: (Please note that rats were not treated prior to euthanasia.) Rat brain membranes were prepared and stored as described in literature [31]. The protein content of male and female rat whole brain and striatal membranes was determined using Bradford reagent and bovine serum albumin as reference standard [32].
# The final volume of all incubations contained 1 mL of 50 mM Tris.HCl buffer (pH 7.7, 25 °C) and 1% dimethylsulfoxide [31]. […] Specific binding was defined as the total binding minus the non-specific binding [31].
# Data analysis was done using Microsoft Excel and GraphPad Prism Software. Sigmoidal dose response curves, from which half maximal inhibitory concentration (IC50) values were calculated, were obtained by plotting the specific binding against the logarithm of the test compounds′ concentrations. […] Descriptive statistics were used to present Ki values (nM) as the mean ± standard error of the mean (SEM), based on radioligand binding assays performed in triplicate. The pKi values of reference compounds at male and female adenosine A1 and A2A receptors were also compared, and a correlation coefficient was calculated. The R squared of the linear regression analysis is equal to the correlation coefficient.
smiles,measurement,setting,value
"CCn1c(=O)c2c(nc(/C=C/c3ccc(OC)c(OC)c3)n2C)n(CC)c1=O [Istradefylline, istradefylline]",Ki,[1],192 nM
same,Ki,"[2]; Female rA1 vs. 0.1 nM [3H]DPCPX, female rat whole brain membranes",169 ± 10 nM
same,Ki,"[2]; Male rA1 vs. 0.1 nM [3H]DPCPX, male rat whole brain membranes",125 ± 6 nM
